Assay results from US10188110B2 (TELEFLEX MEDICAL INCORPORATED, priority 2010, dated 2019).
Counter-ions that a name gives are not always drawn. Like-named read-outs stand apart in the source and are kept apart here.

Assays:
[1] = tested on: Enterobacter aerogenes (E. aerogenes); assay: Kirby-Bauer disk diffusion in HCl agar; format: cell-based; settings: for E. aerogenes Avg. ZOI: 5-FU 256 ppm
Procedure: (§1) Agar plates and cultures of S. aureus, P. aeruginosa, and Enterobacter aerogenes (E. aerogenes) were set up as described in EXPERIMENT 8. […] Cultures were diluted to 1×10^8 CFU/ml.
(§2) From each of the test solution, 20 μL was then dispensed over the Kirby Bauer diffusion disks. The disks were air dried for five minutes and using forceps applied over the agar plates. Plates were then incubated for 24 hours at 37° C. Subsequently the zones of inhibition were measured, in millimeters (mm) using calipers. Each test was run in triplicate.

S. aureus = settings: for S. Aureus Avg. ZOI, HCl Alone: Table 8
Procedure: as §1, §2

[2] = tested on: S. aureus and P. aeruginosa; settings: HCl Conc. 0.001 M, Table 7
Procedure: as §1, §2

[3] = tested on: S. aureus and P. aeruginosa
Source text: One centimeter long catheter segments were cut from Multi-lumen Central Venous Catheters (CVC) from Rifampin and Minocycline impregnated CVCs (Rif/Mino). Cultures of S. aureus and P. aeruginosa were started in Muller Hinton Broth. For each organism, concentration of the inoculum was adjusted to 1×10^8 CFU/ml using 0.5 McFarland standard. […] Plates were sneaked with a single organism using a sterile cotton applicator that was dipped into the broth culture. Using sterile forceps, 1 cm long catheter segments from the control and Rif/Mino catheters were vertically inserted into the agar. Plates were then incubated for 24 hours at 37° C. Each test was run in triplicate. Subsequently the zones of inhibition (ZOI) were measured, in millimeters (mm) using calipers and the three ZOI measurements for each test were averaged.

Compound	E. aerogenes Avg. ZOI ([1]; HCl Conc. 0 M) [mm]	E. aerogenes Avg. ZOI ([1]; HCl Conc. 0.01 M) [mm]	effect of HCl on inhibition ([1]; HCl concentration of 0.01 M)	S. Aureus Avg. ZOI (S. aureus; 5-FU 8 ppm, HCl Conc. 0 M) [mm]	S. Aureus Avg. ZOI (S. aureus; 5-FU 8 ppm, HCl Conc. 0.001 M) [mm]	S. Aureus Avg. ZOI (S. aureus; 5-FU 8 ppm, HCl Conc. 0.01 M) [mm]	S. Aureus Avg. ZOI (S. aureus; 5-FU 16 ppm, HCl Conc. 0 M) [mm]	S. Aureus Avg. ZOI (S. aureus; 5-FU 16 ppm, HCl Conc. 0.001 M) [mm]	S. Aureus Avg. ZOI (S. aureus; 5-FU 16 ppm, HCl Conc. 0.01 M) [mm]	Avg. ZOI HCl Alone [2] [mm]	E. aerogenes Avg. ZOI, HCl Alone ([1]; HCl Conc. 0.01 M, Table 9) [mm]	S. Aureus Avg. ZOI, HCl Alone (S. aureus; HCl Conc. 0.001 M) [mm]	S. Aureus Avg. ZOI, HCl Alone (S. aureus; HCl Conc. 0.01 M) [mm]	Avg. ZOI HCl Alone ([3]; HCl Conc. 0.001 M, Table 6) [mm]	highest HCl concentration that allowed formation of a confluent lawn of organisms ([3]; Muller Hinton Agar plates) [M]
O=c1[nH]cc(F)c(=O)[nH]1 [5-FU, 5-Fluorouracil]	16.15	18.95	enhanced inhibition	0.0	0.0	13.8	10.0	11.5	21.4						
Cl [HCl, hydrochloric acid]										0	0	0	0	0	0.01
